# “Also recorded” adds a separate entry of the source.
# Tests used:
# SETD7 = assay: MALDI-TOF MS methylation assay of H3K4 peptides with SETD7; assay type: biochemical, human; conditions: peptide 100 µM, SETD7 2 µM, SAM 200 µM, 1 h, 37 °C
# Procedure: (§1) MALDI-MS methyltransferases activity experiments were performed using a Bruker instrument in the reflectron positive mode. For regular methyltransferase standard conditions experiment which carried out in 30 µL total volume, the mixture contains peptide (100 µM), SAM (200 µM), SETD8 or SETD7 (2 µM), in assay buffer 50 mM Tris at optimal pH 8.0. In case of G9a and GLP, similar conditions were used, except (500 µM) of SAM was added to the reaction mixture. Samples were incubated in an Eppendorf vial 1.5 mL using thermomixer for 1 h at 37 °C. A 5 µL aliquot of the solution was mixed with 5 µL of MeOH, after which 5 µL of this mixture was mixed with 5 µL of α-cyano-4-hydroxycinamic acid matrix (CHCA, 5 mg/mL in 125:125 µL acetonitrile/water). The spots were placed on a stainless steel MALDI plate (MS 96 target ground steel BC of Bruker, Germany). The mass corresponding to one monomethylation observed as +14 Da, dimethylation observed as +28 Da and trimethylation observed as +42 Da. The enzymatic activity was determined by taking the peak areas of each methylation state, including all isotopes and adducts, and was annotated using FlexAnalysis software (Bruker Daltonics, Germany). […] Methylated peptide substrates were repeated five times and the unmethylated substrates were triplicated. Sequences of the examined peptides are given in (Supplementary Table 1).
# GLP [1] = target: T1, GLP (Homo sapiens, UniProt Q9H9B1); assay: NMR assay of GLP-catalyzed methylation of H3K9 peptides; assay type: biochemical; conditions: peptide 400 µM, GLP 8 µM, SAM 2 mM, 50 mM Tris-d11.HCl pD 8.0, 1 h, 37 °C
# T1 construct: His6 (N); made in house; host or cells: E. coli BL21 (DE3)pLysS-rosetta
# T1 sequence (Q9H9B1 1-1298): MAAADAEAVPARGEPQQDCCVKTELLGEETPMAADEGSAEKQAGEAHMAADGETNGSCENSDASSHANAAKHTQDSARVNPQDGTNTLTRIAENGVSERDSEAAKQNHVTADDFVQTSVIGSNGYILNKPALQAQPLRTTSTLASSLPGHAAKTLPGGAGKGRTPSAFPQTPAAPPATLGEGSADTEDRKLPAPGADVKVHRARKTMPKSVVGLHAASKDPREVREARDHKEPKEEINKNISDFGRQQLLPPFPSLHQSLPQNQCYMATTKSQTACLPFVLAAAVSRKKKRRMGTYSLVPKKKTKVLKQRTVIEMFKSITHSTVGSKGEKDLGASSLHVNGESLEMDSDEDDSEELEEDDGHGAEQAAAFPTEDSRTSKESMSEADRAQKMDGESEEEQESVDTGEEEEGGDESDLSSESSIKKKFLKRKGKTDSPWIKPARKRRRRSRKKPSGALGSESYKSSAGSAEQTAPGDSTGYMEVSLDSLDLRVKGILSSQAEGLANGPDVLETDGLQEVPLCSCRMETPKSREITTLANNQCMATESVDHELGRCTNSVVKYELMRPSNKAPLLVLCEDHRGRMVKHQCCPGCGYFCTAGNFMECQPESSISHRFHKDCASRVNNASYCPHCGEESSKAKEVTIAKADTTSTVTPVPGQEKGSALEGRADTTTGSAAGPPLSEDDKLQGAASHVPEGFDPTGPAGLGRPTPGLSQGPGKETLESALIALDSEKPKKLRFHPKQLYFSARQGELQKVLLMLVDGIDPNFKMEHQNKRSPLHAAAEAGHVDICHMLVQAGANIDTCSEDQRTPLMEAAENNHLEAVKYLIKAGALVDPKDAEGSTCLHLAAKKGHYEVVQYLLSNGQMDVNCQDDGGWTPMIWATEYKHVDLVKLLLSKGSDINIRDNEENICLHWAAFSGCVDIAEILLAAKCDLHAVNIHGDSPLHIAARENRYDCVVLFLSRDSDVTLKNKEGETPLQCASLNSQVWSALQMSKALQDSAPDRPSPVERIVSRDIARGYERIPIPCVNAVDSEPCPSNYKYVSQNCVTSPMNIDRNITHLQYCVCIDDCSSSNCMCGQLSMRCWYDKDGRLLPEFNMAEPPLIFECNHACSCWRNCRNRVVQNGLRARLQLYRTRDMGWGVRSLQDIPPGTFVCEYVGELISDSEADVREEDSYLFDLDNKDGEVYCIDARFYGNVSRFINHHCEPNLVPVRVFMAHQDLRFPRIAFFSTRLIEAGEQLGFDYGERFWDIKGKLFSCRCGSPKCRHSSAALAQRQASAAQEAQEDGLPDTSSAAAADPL
# GLP [2] = target: T1, GLP; assay: MALDI-TOF MS methylation assay of H3K9 peptides with GLP; assay type: biochemical; conditions: peptide 100 µM, GLP 10 µM, SAM 1 mM, 5 h, 37 °C, MALDI-MS
# Procedure: as §1, with “Samples were incubated in an Eppendorf vial 1.5 mL using thermomixer for 1 h at 37 °C.” left out
# G9a = target: T2, G9a (Homo sapiens, UniProt Q96KQ7); assay: MALDI-TOF MS methylation assay of H3K9 peptides with G9a; assay type: biochemical; conditions: peptide 100 µM, G9a 2 µM, SAM 500 µM, 1 h, 37 °C
# T2 construct: His6 (N); made in house; host or cells: E. coli BL21 (DE3)pLysS-rosetta
# T2 sequence (Q96KQ7 1-1210): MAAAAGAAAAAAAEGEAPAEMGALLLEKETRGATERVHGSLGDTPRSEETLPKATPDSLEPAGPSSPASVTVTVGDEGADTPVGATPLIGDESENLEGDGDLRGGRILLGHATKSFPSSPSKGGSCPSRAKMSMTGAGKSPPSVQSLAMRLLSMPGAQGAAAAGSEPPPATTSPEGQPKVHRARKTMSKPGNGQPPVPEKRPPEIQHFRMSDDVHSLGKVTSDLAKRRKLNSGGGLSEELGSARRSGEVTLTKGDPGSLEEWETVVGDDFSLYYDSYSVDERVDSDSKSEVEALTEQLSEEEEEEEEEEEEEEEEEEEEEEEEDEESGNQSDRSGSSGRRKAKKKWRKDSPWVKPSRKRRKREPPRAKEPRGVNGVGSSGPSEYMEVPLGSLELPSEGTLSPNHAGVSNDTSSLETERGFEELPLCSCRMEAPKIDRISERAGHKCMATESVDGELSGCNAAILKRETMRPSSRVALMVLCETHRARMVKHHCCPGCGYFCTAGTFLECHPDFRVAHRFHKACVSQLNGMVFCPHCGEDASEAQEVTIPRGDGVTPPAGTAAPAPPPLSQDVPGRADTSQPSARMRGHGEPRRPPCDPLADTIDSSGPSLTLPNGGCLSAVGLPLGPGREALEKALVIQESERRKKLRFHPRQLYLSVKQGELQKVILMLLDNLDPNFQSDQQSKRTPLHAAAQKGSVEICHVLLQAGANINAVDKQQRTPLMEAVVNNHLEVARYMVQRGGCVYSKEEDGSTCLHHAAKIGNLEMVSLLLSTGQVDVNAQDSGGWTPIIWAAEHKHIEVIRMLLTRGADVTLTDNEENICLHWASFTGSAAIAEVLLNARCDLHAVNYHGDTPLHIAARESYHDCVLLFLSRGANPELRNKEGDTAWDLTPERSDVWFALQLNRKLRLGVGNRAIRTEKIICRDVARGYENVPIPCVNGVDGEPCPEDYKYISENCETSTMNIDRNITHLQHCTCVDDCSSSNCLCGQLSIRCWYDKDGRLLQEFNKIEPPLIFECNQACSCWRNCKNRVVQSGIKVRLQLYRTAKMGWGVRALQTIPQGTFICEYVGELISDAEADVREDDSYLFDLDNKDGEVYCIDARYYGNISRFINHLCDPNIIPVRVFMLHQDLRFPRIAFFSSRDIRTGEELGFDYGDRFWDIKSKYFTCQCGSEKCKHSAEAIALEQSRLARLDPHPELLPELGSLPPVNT
# Procedure: as §1
# SETD8 = target: T3, SETD8 (Homo sapiens, UniProt Q9NQR1); assay: MALDI-TOF MS methylation assay of H4K20 peptides with SETD8; assay type: biochemical; conditions: peptide 100 µM, SETD8 10 µM, SAM 1 mM, 1 h and 5 h, 37 °C, MALDI-MS
# T3 construct: His6 (N); made in house; host or cells: E. coli BL21 (DE3)pLysS-rosetta
# T3 sequence (Q9NQR1 1-393): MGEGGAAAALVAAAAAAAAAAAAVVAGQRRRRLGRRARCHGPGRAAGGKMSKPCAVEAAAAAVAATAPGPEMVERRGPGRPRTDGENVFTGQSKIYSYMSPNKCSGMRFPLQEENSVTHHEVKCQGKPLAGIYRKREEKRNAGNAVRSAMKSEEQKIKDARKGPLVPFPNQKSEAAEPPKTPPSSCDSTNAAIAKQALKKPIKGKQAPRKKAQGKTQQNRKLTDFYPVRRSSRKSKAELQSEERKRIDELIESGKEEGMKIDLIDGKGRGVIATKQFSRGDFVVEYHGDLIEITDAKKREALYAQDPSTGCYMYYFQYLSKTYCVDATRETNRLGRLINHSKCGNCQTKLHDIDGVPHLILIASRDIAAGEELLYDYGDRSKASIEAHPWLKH
# Procedure: as §1, with “For regular methyltransferase standard conditions experiment which carried out in 30 µL total volume, the mixture contains peptide (100 µM), SAM (200 µM), SETD8 or SETD7 (2 µM), in assay buffer 50 mM Tris at optimal pH 8.0.” left out
Substance,"SETD7-catalyzed methylation, result in words (SETD7)","SETD8-catalyzed methylation, result in words, increased SETD8/SAM and prolonged incubation (SETD8)",also measured
"ART(Ap4)QTARKSTGGKA [H3AP4, H3K4 peptide bearing pyridylalanine at position 4]",lack of methylation,–,–
"ART(F3a4)QTARKSTGGKA [H3F3a4, H3K4 peptide bearing meta-aminophenylalanine at position 4]",lack of methylation,–,–
"ART(Kba4)QTARKSTGGKA [H3Kba4, H3K4 peptide bearing benzylamine lysine analog at position 4]",lack of methylation,–,–
"ART(Y4)QTARKSTGGKA [H3Y4, H3K4 peptide bearing tyrosine at position 4]",lack of methylation,–,–
ARTKQTAR(Ap9)STGGKA [H3AP9],–,–,"GLP-catalyzed methylation by 1H NMR / 1H-13C HSQC, result in words (GLP [1]): not methylated; GLP-catalyzed methylation, result in words, increased GLP/SAM (GLP [2]): lack of methylation; G9a-catalyzed methylation, result in words (G9a): lack of methylation"
ARTKQTAR(F4a9)STGGKA [H3F4a9],–,–,"GLP-catalyzed methylation by 1H NMR / 1H-13C HSQC, result in words (GLP [1]): not methylated; GLP-catalyzed methylation, result in words, increased GLP/SAM (GLP [2]): lack of methylation; G9a-catalyzed methylation, result in words (G9a): lack of methylation"
"ARTKQTARKSTGGK [H3 1-14K9, reference compound]",–,–,"G9a-catalyzed methylation, result in words (G9a): trimethylation"
"ARTK^4QTARKSTGGKA [H3K4, reference compound]",formation of monomethylated H3K4; also recorded: monomethylation,–,–
"GGAKRHR(Ap20)VLRDNIQ [H4AP20, H4K20 peptide bearing pyridylalanine at position 20]",–,lack of methylation,–
"GGAKRHR(F3a20)VLRDNIQ [H4F3a20, H4K20 peptide bearing meta-aminophenylalanine at position 20]",–,lack of methylation,–
"GGAKRHR(F4a20)VLRDNIQ [H4F4a20, H4K20 peptide bearing para-aminophenylalanine at position 20]",–,lack of methylation,–
"GGAKRHR(Y20)VLRDNIQ [H4Y20, H4K20 peptide bearing tyrosine at position 20]",–,lack of methylation,–

# From article PMC7048932, “Examining sterically demanding lysine analogs for histone lysine methyltransferase catalysis” (Scientific Reports, 2020)
